{"source": "ChEMBL document CHEMBL5465560", "about": "“Selectivity Literature for EUbOPEN Chemogenomic Library” (2024)", "key": {"[1]": {"target": "Serine/threonine-protein kinase MRCK alpha (Homo sapiens) (UniProt Q5VT25)", "sequence (Q5VT25 whole entry)": "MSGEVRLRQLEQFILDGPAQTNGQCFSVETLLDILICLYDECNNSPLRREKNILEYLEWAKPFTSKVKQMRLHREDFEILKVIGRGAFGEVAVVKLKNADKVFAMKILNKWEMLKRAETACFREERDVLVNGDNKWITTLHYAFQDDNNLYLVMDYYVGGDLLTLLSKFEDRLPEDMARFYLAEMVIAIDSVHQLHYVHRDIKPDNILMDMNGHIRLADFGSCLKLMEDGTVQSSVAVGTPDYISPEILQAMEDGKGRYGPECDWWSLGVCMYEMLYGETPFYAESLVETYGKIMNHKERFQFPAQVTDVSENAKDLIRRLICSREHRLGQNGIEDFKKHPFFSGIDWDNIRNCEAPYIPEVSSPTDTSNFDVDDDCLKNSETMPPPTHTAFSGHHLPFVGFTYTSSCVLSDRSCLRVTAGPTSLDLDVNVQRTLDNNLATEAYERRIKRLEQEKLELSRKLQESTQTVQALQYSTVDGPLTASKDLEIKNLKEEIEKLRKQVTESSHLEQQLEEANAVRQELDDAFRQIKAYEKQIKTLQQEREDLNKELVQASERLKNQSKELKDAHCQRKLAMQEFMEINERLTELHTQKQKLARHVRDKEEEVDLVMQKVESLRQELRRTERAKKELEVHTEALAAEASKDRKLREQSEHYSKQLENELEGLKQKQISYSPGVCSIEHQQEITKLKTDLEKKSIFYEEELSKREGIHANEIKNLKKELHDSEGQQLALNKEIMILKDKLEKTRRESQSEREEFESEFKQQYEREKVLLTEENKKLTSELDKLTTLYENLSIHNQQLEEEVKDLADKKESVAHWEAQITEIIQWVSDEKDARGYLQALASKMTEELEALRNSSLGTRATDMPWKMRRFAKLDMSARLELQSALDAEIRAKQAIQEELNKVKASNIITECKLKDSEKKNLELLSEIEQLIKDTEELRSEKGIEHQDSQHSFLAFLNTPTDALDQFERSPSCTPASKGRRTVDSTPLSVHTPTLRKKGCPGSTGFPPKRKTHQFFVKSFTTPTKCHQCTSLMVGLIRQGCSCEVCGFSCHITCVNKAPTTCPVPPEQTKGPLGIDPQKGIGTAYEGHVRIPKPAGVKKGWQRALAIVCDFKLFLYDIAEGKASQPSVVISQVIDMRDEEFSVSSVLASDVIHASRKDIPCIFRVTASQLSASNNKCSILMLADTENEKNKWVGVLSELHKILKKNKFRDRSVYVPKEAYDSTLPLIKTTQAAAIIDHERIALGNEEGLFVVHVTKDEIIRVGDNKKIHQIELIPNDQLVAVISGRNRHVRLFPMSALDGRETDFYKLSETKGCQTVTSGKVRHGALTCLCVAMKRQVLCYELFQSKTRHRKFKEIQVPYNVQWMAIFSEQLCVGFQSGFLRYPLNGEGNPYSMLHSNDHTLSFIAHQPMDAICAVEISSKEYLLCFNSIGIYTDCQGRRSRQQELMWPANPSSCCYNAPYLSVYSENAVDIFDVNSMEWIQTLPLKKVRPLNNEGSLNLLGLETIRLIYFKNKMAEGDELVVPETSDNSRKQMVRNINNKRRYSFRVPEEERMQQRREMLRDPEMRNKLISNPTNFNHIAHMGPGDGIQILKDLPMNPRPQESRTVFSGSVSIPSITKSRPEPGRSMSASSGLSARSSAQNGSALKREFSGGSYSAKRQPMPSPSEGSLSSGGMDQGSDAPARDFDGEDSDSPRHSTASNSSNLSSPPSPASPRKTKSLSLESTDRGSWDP", "assay": "Selectivity interaction (KinomeScan (DiscoverX)) EUB0000229b CDC42BPA", "conditions": "at 10 µM"}, "[2]": {"target": "T1, Serine/threonine-protein kinase 17A (Homo sapiens) (UniProt Q9UEE5)", "T1 sequence (whole entry)": "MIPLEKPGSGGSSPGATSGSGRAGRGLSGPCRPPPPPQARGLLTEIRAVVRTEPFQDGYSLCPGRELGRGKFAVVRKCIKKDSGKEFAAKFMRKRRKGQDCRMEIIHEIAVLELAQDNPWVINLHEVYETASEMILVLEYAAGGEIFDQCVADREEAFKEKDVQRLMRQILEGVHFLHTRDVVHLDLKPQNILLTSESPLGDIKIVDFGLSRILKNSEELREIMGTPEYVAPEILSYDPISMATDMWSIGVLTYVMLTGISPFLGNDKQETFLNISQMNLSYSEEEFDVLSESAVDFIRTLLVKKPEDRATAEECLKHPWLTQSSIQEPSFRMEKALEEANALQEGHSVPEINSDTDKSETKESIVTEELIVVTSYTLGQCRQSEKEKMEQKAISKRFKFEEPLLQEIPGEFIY", "assay": "Selectivity interaction (Kinase panel (DSF assay)) EUB0001558a STK17A"}, "[3]": {"target": "T2, Mitogen-activated protein kinase 15 (Homo sapiens) (UniProt Q8TD08)", "T2 sequence (whole entry)": "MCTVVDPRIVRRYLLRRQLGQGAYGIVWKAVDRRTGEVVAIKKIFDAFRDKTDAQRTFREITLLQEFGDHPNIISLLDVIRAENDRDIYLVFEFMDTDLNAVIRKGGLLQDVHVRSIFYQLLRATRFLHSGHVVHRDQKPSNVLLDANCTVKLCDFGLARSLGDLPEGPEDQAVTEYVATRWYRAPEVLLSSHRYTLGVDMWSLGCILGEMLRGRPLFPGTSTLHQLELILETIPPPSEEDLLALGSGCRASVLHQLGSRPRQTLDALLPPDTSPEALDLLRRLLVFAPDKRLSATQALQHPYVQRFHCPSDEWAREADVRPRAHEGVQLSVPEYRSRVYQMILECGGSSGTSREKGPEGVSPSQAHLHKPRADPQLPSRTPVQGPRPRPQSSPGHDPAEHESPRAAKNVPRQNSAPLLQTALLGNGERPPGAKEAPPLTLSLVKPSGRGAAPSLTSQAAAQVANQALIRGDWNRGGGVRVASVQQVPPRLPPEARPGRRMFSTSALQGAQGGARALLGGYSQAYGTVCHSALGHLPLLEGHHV", "conditions": "at 10 µM"}, "[4]": {"target": "Serine/threonine-protein kinase 16 (Homo sapiens, UniProt O75716)", "sequence (O75716 whole entry)": "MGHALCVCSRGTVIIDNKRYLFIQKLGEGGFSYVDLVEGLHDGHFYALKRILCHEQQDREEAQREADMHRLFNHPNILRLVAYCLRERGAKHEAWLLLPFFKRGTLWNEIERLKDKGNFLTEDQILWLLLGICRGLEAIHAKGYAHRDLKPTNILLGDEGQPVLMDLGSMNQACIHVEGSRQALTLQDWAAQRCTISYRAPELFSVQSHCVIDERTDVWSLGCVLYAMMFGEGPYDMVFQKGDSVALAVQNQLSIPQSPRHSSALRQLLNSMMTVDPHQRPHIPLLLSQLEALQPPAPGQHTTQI", "assay": "Selectivity interaction (ActivX KiNativ screen (kinase selectivity in THP-1 cell lysates)) EUB0000639a STK16", "assay_type": "subcellular", "conditions": "lysate, at 1 µM"}, "[5]": {"target": "T3, Serine/threonine-protein kinase ICK (Homo sapiens) (UniProt Q9UPZ9)", "T3 sequence (whole entry)": "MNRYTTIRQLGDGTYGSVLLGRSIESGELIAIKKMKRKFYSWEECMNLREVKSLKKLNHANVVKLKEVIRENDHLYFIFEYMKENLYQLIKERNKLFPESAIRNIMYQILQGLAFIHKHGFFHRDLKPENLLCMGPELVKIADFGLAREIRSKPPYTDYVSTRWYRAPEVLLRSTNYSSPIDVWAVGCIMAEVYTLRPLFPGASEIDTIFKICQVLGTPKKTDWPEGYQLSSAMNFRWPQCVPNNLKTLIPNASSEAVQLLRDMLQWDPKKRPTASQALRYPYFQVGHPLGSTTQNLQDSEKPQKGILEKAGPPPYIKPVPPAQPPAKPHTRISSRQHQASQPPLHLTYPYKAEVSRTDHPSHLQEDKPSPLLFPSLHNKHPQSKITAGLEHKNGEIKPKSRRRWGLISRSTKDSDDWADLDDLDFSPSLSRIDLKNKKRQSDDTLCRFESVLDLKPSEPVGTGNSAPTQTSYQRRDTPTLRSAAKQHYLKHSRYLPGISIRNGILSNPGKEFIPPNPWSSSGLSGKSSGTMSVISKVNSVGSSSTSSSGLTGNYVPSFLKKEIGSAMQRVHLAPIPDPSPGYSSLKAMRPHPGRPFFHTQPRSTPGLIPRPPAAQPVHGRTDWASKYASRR", "assay": "Selectivity interaction (KinomeScan (DiscoverX)) EUB0000595a ICK", "conditions": "at 10 µM"}, "MAO-B (MAOB)": {"target": "MAO-B (MAOB) (Homo sapiens, UniProt P27338)", "sequence (P27338 whole entry)": "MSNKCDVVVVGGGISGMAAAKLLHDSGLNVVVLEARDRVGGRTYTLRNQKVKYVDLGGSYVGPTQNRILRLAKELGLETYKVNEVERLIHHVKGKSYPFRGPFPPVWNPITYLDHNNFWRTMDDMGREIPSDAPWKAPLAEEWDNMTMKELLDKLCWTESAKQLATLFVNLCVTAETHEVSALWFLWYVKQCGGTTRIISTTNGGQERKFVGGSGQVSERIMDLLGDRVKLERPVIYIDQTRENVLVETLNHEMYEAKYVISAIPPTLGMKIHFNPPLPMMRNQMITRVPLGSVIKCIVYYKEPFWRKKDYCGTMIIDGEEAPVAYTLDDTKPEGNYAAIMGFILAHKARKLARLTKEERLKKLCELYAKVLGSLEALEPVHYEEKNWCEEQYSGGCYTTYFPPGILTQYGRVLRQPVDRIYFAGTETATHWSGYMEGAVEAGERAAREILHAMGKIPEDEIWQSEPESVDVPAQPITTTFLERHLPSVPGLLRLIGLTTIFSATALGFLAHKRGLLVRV", "assay": "Selectivity interaction (Panel of kinases, GPCRs, ion channels and transporters (enzymatic assay)) EUB0000266bCl MAOB"}, "[6]": {"target": "Receptor-type tyrosine-protein kinase FLT3 (Homo sapiens) (UniProt P36888)", "assay": "(§1) Selectivity interaction (SelectScreen profiling (Invitrogen)) EUB0000607a FLT3", "conditions": "at 2 µM"}, "[7]": {"tested_on": "T4, Receptor-type tyrosine-protein kinase FLT3 (Homo sapiens), P36888 [D835Y]", "T4 sequence (whole entry)": "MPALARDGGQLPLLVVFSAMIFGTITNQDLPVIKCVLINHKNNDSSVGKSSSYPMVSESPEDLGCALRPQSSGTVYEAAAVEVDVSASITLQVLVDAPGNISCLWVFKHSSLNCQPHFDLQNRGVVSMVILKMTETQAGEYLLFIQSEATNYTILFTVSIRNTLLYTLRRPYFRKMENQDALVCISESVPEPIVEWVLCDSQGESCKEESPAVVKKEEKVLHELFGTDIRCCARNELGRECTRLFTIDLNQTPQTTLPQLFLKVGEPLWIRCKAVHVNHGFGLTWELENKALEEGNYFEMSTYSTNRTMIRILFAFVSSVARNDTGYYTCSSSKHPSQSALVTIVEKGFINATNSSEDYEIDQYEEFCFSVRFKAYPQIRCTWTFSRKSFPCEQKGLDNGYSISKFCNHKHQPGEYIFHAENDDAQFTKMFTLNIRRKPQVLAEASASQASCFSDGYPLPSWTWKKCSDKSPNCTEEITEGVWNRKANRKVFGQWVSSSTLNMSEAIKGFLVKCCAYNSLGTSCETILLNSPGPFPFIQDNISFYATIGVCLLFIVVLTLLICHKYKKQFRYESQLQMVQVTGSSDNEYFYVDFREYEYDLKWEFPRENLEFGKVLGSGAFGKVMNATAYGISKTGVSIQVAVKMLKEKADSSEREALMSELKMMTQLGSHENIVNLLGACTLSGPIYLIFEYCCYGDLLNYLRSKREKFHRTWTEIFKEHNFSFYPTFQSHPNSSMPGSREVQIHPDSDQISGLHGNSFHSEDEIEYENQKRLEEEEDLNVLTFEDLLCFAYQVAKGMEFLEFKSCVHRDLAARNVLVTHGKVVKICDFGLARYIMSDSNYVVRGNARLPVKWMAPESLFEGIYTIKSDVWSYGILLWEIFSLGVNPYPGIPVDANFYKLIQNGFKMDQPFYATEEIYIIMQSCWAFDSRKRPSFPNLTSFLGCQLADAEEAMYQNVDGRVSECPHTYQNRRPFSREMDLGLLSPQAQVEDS", "assay": "as §1", "conditions": "at 2 µM"}}}
{"smiles": "COc1cc(N(C)c2ccnc3ccc(C(F)(F)F)cc23)cc(OC)c1OC", "values": [{"measurement": "% binding", "setting": "[1]", "value": 100, "unit": "%"}]}
{"smiles": "CC(C)(O)[C@H](F)CN1Cc2cc(NC(=O)c3cnn4cccnc34)c(N3CCOCC3)cc2C1=O", "values": [{"measurement": "dTM", "setting": "[2]", "value": 0.9, "unit": "K"}]}
{"smiles": "CCN(CC)CCCCNc1ncc2cc(-c3cc(OC)cc(OC)c3)c(NC(=O)NC(C)(C)C)nc2n1", "values": [{"measurement": "% of control", "setting": "[3]", "value": 100, "unit": "%"}]}
{"smiles": "CC[C@@H]1[C@H](F)C(=O)N[C@@H]1COc1nccc2cc(C(N)=O)c(OC)cc12", "note": "[ZIMLOVISERTIB]", "values": [{"measurement": "% of inhibition", "setting": "[4]", "value": 58.6, "unit": "%"}]}
{"smiles": "COCC(=O)NC/C=C/c1ccc2ncnc(Nc3ccc(Oc4ccc(C)nc4)c(C)c3)c2c1", "note": "[CP-724714]", "values": [{"measurement": "% of control", "setting": "[5]", "value": 100, "unit": "%"}]}
{"smiles": "CCn1c(-c2nc3cc(C(=O)N4CCCC(N)C4)ccc3n2C)cc2ccccc21", "note": "(stereo not drawn)", "values": [{"measurement": "XC50", "setting": "MAO-B (MAOB)", "value": 20, "unit": "µM"}]}
{"smiles": "CNC(=O)Nc1ccc(-c2nc(N3CC4CCC(C3)O4)c3cnn(C4CCC5(CC4)OCCO5)c3n2)cc1", "values": [{"measurement": "% of inhibition", "setting": "[6]", "value": 17, "unit": "%"}, {"measurement": "% of inhibition", "setting": "[7]", "value": 7, "unit": "%"}]}
